pIC50: −log10 of the molar value. The source made the active and inactive calls. No cut-off for these calls is given here.
Legend:
[1] = target: T1, Histone deacetylase 8 (Homo sapiens, UniProt Q9BY41); assay: Inhibition of HDAC8 (unknown origin) by fluorometric assay
T1 sequence (Q9BY41 whole entry): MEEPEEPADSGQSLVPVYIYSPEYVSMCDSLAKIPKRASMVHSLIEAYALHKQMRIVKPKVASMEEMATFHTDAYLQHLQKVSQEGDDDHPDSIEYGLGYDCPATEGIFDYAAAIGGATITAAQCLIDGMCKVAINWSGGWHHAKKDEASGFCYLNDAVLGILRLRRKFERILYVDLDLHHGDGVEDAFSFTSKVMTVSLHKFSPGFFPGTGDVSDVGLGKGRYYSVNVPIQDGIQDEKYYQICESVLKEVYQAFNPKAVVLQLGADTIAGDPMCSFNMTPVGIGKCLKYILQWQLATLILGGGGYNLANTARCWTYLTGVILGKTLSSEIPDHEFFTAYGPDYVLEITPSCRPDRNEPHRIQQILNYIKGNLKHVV

[2] = tested on: MDA-MB-231; assay: cells; format: functional, cell-based; conditions: Homo sapiens, MDA-MB-231, 48 h
[3] = target: DNA topoisomerase 2-alpha (Homo sapiens, UniProt P11388); assay: Inhibition of human Topo II-alpha-mediated decatenation of kDNA at 100 uM incubated for 30 mins
[4] = tested on: Supercoiled DNA; assay: Binding affinity to supercoiled DNA (unknown origin) assessed as DNA intercalation measured after 30 mins by gel electrophoresis; format: nucleic-acid assay
[5] = tested on: NCI-H1299; assay: cells; format: functional, cell-based; conditions: Homo sapiens, NCI-H1299, 48 h
[6] = tested on: MCF7; assay: cells; format: functional, cell-based; conditions: Homo sapiens, MCF7, 48 h
[7] = target: T2, Protein deacetylase HDAC6 (Homo sapiens, UniProt Q9UBN7); assay: Inhibition of HDAC6 (unknown origin) using acetylated-peptide substrate by fluorometric assay
T2 sequence (Q9UBN7 whole entry): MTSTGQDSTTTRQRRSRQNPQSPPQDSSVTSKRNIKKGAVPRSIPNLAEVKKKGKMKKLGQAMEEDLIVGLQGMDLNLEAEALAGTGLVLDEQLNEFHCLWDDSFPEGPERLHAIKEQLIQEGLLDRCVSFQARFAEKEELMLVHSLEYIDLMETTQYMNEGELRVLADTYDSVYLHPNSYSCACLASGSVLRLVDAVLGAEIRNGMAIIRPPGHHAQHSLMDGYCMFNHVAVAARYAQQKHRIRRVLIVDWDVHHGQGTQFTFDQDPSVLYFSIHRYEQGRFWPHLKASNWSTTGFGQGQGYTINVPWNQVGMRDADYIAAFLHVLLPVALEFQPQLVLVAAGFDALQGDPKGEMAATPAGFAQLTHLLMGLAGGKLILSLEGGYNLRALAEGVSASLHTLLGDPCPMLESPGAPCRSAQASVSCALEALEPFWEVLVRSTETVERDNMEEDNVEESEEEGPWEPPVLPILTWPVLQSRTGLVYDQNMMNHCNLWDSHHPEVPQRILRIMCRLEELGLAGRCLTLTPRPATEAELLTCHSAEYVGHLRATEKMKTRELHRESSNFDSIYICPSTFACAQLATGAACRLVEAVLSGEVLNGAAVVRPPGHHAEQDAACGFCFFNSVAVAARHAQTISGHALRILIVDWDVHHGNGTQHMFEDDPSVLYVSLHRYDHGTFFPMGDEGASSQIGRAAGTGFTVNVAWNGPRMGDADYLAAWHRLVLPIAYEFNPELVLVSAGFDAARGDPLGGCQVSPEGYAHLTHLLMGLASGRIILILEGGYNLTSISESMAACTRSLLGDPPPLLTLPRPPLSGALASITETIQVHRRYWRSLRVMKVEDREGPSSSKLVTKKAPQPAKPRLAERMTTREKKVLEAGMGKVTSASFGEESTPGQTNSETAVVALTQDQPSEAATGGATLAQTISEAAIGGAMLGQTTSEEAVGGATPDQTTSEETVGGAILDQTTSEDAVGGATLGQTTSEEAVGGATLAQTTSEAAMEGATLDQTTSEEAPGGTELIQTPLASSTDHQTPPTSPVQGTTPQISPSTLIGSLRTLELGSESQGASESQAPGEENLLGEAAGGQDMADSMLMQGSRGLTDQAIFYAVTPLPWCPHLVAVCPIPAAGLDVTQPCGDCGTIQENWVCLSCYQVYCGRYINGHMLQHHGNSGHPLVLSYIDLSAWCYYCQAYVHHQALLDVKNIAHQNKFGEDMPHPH

[8] = tested on: HT-29; assay: cells; format: functional, cell-based; conditions: Homo sapiens, HT-29, 48 h
[9] = target: T3, Histone deacetylase 1 (Homo sapiens, UniProt Q13547); assay: Inhibition of HDAC1 extracted from human A549 nucleus incubated for 1 hr by fluorometric assay; format: cell-free
[10] = tested on: A549; assay: cells; conditions: Homo sapiens, A549, 48 h
[11] = target: T3, Histone deacetylase 1; assay: Inhibition of HDAC1 (unknown origin)
[12] = target: T2, Protein deacetylase HDAC6; assay: Inhibition of HDAC6 (unknown origin)
[13] = target: T4, DNA topoisomerase 1 (Homo sapiens) (UniProt P11387); assay: Inhibition of human Topo I-mediated relaxation of supercoiled DNA preincubated for 30 mins followed by proteinase K addition measured after 30 mins by gel electrophoresis; conditions: time 60.0 min
T4 sequence (whole entry): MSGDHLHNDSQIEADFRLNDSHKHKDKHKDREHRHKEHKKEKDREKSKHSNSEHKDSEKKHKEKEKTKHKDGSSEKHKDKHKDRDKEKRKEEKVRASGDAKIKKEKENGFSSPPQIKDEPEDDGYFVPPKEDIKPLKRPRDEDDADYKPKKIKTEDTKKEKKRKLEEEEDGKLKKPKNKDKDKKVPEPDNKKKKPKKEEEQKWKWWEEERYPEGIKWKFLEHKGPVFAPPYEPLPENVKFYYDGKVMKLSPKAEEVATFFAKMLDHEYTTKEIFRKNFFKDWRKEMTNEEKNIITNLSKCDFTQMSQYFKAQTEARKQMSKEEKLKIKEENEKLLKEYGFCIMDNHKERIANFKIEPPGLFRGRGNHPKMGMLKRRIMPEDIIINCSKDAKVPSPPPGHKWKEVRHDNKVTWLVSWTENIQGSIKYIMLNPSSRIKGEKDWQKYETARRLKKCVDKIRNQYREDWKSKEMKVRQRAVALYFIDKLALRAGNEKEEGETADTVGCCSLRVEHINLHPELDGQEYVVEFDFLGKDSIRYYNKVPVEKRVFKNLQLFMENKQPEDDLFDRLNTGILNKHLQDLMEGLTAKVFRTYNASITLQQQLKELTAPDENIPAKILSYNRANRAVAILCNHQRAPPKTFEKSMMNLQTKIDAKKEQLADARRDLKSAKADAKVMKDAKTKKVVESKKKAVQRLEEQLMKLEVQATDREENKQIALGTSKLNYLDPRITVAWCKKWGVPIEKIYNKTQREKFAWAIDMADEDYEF

[14] = tested on: A549; assay: Induction of ROS generation in human A549 cells incubated for 48 hrs by DCFH-DA staining based analysis; format: functional, cell-based
[15] = tested on: A549; assay: Induction of cell cycle arrest in human A549 cells assessed as accumulation at G1 phase by PI staining based flow cytometry; format: functional
[16] = tested on: A549; assay: Effect on mitochondrial membrane permeability in human A549 cells assessed as decrease in red to green fluorescence ratio at sub-IC50 incubated for 48 hrs by JC-1 staining based analysis; format: functional, cell-based
[17] = tested on: A549; assay: Induction of ROS generation in human A549 cells incubated for 48 hrs by Cell Rox red staining based flow cytometry; format: functional
[18] = tested on: A549; assay: Induction of cell cycle arrest in human A549 cells assessed as accumulation at G2/M phase by PI staining based flow cytometry; format: functional
[19] = tested on: A549; assay: Anti-cancer activity against human A549 3D cell culture model assessed as inhibition of 3D culture initiation at sub- IC50 incubated for 21 days with replacement of medium containing compound on every seventh day; format: functional, cell-based; conditions: time 21.0 day
[20] = tested on: A549; assay: Anti-cancer activity against human A549 3D cell culture model at sub- IC50 incubated for 17 days with replacement of medium containing compound on every third day; format: functional, cell-based; conditions: time 17.0 day
[21] = tested on: A549; assay: Induction of apoptosis in human A549 cells by Annexin-V/PI staining based flow cytometry; format: functional, cell-based
[22] = Toxicity in athymic nude Crl:NU-Foxn1nu mouse xenografted with human A549 cells assessed as animal survival at 30 mg/kg, po administered twice a week for 1 month; format: organism-based; conditions: in vivo, 730 h, time 1 months
[23] = Antiproliferative activity against human NCI-H1975 cells harboring EGFR T790M mutant incubated for 48 hrs by MTT assay; format: functional, cell-based; conditions: NCI-H1975, 48 h

T3 sequence (Q13547 whole entry): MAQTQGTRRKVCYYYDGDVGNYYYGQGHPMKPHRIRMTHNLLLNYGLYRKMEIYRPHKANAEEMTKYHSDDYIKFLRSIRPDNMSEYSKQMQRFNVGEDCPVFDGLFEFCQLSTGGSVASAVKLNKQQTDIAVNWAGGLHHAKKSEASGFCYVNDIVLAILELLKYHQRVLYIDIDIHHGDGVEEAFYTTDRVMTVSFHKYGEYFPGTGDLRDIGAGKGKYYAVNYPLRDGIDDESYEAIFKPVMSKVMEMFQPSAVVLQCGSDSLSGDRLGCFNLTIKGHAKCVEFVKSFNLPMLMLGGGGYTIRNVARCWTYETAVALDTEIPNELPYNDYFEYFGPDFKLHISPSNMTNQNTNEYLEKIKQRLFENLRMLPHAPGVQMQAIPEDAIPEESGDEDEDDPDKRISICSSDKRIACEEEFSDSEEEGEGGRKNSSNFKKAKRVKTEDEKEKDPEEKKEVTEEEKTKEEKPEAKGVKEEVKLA
Chain of DNA topoisomerase 2-alpha (P11388 whole entry): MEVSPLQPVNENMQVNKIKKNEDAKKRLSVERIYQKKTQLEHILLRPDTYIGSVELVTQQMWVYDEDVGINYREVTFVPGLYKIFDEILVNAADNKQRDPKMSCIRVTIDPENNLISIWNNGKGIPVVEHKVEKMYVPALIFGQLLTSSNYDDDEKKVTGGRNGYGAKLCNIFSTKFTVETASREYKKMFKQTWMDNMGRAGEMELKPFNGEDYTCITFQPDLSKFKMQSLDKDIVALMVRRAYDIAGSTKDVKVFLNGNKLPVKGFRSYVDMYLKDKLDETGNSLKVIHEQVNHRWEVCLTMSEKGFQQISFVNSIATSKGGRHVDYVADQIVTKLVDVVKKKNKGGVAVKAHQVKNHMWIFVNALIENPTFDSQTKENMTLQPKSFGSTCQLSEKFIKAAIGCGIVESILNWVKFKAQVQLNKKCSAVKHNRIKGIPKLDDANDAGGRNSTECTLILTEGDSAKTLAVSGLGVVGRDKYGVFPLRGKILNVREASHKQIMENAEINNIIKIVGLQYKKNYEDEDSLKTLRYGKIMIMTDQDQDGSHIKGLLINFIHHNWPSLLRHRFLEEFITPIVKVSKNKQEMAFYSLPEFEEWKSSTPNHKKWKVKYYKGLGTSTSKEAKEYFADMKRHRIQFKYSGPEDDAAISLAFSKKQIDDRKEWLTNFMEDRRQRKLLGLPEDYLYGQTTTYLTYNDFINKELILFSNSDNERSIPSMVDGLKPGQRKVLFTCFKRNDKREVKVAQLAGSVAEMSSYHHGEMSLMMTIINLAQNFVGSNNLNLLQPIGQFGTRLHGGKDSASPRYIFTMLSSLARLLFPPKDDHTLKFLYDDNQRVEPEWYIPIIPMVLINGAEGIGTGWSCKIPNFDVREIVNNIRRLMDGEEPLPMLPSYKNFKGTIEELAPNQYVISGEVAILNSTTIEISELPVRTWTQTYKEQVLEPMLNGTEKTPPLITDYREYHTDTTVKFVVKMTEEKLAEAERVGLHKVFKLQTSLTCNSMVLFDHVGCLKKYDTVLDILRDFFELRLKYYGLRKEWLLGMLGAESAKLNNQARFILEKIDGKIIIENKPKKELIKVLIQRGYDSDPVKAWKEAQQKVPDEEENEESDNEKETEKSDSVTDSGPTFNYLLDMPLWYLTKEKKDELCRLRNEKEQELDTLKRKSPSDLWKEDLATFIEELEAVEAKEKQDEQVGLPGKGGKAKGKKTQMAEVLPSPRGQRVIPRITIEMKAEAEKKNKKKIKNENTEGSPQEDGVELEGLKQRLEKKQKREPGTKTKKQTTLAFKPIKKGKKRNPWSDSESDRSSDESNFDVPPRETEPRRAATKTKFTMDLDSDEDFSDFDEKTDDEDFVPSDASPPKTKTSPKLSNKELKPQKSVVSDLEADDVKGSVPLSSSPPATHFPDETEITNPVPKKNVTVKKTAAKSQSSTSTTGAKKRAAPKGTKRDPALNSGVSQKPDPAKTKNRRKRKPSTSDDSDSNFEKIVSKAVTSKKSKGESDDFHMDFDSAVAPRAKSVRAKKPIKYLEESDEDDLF

Row | SMILES | pIC50 [1] | pIC50 [2] | inhibition [3] | Activity [4] | pIC50 [5] | pIC50 [6] | pIC50 [7] | pIC50 [8] | pIC50 [9] | pIC50 [10] | pIC50 [11] | pIC50 [12] | also measured
1 | COc1cc(-c2ccc3cc(OCCCCCC(=O)NO)ccc3n2)cc(OC)c1OC | < 6.30 | 5.20 | Active | inactive | 5.49 | 5.28 | < 6.30 | 5.72 | 7.36 | 5.73 |  |  | 
2 | COc1cc(-c2ccc3cc(OCCCCCCC(=O)NO)ccc3n2)cc(OC)c1OC | < 6.30 | 5.23 | Active | inactive | 5.32 | 5.33 | 6.62 | 5.30 | 7.16 | 5.43 |  |  | 
3 | O=C(CCCCCCOc1ccc(-c2ccc3ccccc3n2)cc1)NO | < 6.30 | 5.42 | Active; Observed As More Active Than Etoposide | inactive | 5.61 | 5.32 | 6.56 | 5.46 | 7.18 | 6.07 |  |  | 
4 | CN1c2ccc(NCc3ccc(-c4noc(CC(=O)NO)n4)cc3)cc2C(O)N2CCc3c([nH]c4ccc(O)cc34)C12 (stereo unspecified) |  |  |  |  |  |  |  |  |  |  | 7.62 | 7.89 | 
5 | O=C(CCCCCCOc1ccc2nc(-c3ccccc3)ccc2c1)NO | < 6.30 | 5.05 | Active; Observed As More Active Than Etoposide | inactive | 5.37 | 5.03 | < 6.30 | 5.08 | 7.32 | 5.40 |  |  | 
6 | CC[C@@]1(O)C(=O)OCc2c1cc1n(c2=O)Cc2c-1nc1ccccc1c2/C=N\OCCCCCCC(=O)NO |  |  |  |  |  |  |  |  |  |  | 8.28 | 8.28 | 
7 | COc1ccc(-c2ccc3cc(OCCCCCCC(=O)NO)ccc3n2)cc1 | < 6.30 | 6.01 | Active; Observed As More Active Than Etoposide | inactive | 5.63 | 5.84 | < 6.30 | 5.41 | 7.55 | 5.80 |  |  | inhibition [13]: Active; Activity [14]: Active; Activity [15]: Active; Activity [16]: Active; Result Signifies That Cell Death Induced Via Mitochondrial-Dependent Pathways; Activity [17]: Active; Activity [18]: Active; inhibition [19]: Active; Activity [20]: Active; Exhibited Commendable Decrease In Mass Of 3D Sphere; Activity [21]: Active
8 | O=C(CCCCCn1cc(-c2ccc(Nc3c4ccccc4nc4ccccc34)cc2)nn1)NO |  |  |  |  |  |  |  |  |  |  | 8.41 | 8.54 | 
9 | COc1ccc(-c2ccc3ccc(OCCCCCC(=O)NO)cc3n2)cc1I | < 6.30 | 5.83 | Active; Observed As More Active Than Etoposide | inactive | 5.70 | 5.54 | 7.32 | 5.54 | 7.47 | 5.75 |  |  | inhibition [13]: Active; Activity [14]: Active; Activity [15]: Active; Activity [16]: Not active; Result Signifies That Cell Death Induced Via Mitochondrial-Independent Pathways; Activity [17]: Active; Activity [18]: Active; inhibition [19]: Active; Activity [20]: Active; Exhibited Potent Effect; Activity [21]: Active
10 | COc1cc([C@@H]2c3cc4c(cc3[C@@H](O[C@@H]3O[C@@H]5CO[C@@H](C)O[C@H]5[C@H](O)[C@H]3O)[C@H]3COC(=O)[C@H]23)OCO4)cc(OC)c1O [ETOPOSIDE] |  |  |  |  |  |  |  |  |  |  |  |  | Activity [22]: Non-toxic; pIC50 [23]: 5.79

Source: ChEMBL document CHEMBL6121021, “Design and Synthesis of Topoisomerases-Histone Deacetylase Dual Targeted Quinoline-Bridged Hydroxamates as Anticancer Agents” (J Med Chem, 2025)
